Reference: patent US10167266B2, “Sodium channel blockers” (Parion Sciences, Inc., priority 2002, dated 2019)
Where “and” joins values, the source holds several entries; their conditions need not be identical. Equal entries are not always repeated. Structures can show the parent of a compound that is named as a salt.

Test system: sodium channel (ENaC), canine bronchial epithelia
Test: Sodium channel blocking activity: inhibition of short circuit current (ISC) in airway epithelial monolayers in Ussing chambers
Type: cell-based
Details: for Fold Enhancement Over Amiloride / Fold Amiloride*: potency in canine bronchial epithelia relative to amiloride; for Fold potency relative to amiloride: Example 51
Description: One assay used to assess mechanism of action and/or potency of the compounds of the present invention involves the determination of lumenal drug inhibition of airway epithelial sodium currents measured under short circuit current (ISC) using airway epithelial monolayers mounted in Ussing chambers. Cells obtained from freshly excised human, dog, sheep or rodent airways are seeded onto porous 0.4 micron Snapwell™ Inserts (CoStar), cultured at air-liquid interface (ALI) conditions in hormonally defined media, and assayed for sodium transport activity (ISC) while bathed in Krebs Bicarbonate Ringer (KBR) in Using chambers. All test drug additions are to the lumenal bath with half-log dose addition protocols (from 1×10^−11 M to 3×10^−5 M), and the cumulative change in ISC (inhibition) recorded. All drugs are prepared in dimethyl sulfoxide as stock solutions at a concentration of 1×10^−2 M and stored at −20° C. Eight preparations are typically run in parallel; two preparations per run incorporate amiloride and/or benzamil as positive controls. After the maximal concentration (5×10^−5 M) is administered, the lumenal bath is exchanged three times with fresh drug-free KBR solution, and the resultant ISC measured after each wash for approximately 5 minutes in duration. Reversibility is defined as the percent return to the baseline value for sodium current after the third wash. All data from the voltage clamps are collected via a computer interface and analyzed off-line.
Dose-effect relationships for all compounds are considered and analyzed by the Prism 3.0 program. IC50 values, maximal effective concentrations, and reversibility are calculated and compared to amiloride and benzamil as positive controls.
Amiloride was also tested in this assay as a positive control. The results for the compounds of the present invention are reported as fold-enhancement values relative to amiloride.

N=C(NCCc1ccc(N)cc1)NC(=O)c1nc(Cl)c(N)nc1N [drawing 47: n=2, 4, NH2, 4-(4-Aminophenyl)ethylamidino-3,5-diamino-6-chloropyrazinecarboxamide hydrochloride]
Fold Enhancement Over Amiloride (Example 28): 12.7 fold

CC1(C)OCC(COc2ccc(CCCCNC(=N)NC(=O)c3nc(Cl)c(N)nc3N)cc2)O1 (stereo not shown) [drawing 48: R=H3CxCH3*, 4-[4-(2,2 Dimethyl-[1,3]dioxolan-4 yl)methyloxyphenyl]butylamidino-3,5-diamino-6-chloropyrazinecarboxamide]
Fold Enhancement Over Amiloride (Example 29): 91 fold

Cl.N=C(NCCCCc1ccc(OCC(O)CO)cc1)NC(=O)c1nc(Cl)c(N)nc1N (stereo not shown) [drawing 48: R=H, 4-[4(2,3-Dihydroxypropyloxyl)phenyl]butylamidino-3,5-diamino-6-chloropyrazinecarboxamide hydrochloride]
Fold Enhancement Over Amiloride (Example 29): 124 fold | Fold Amiloride* (Example 47): 51.95 (50) fold | Fold Amiloride* (Example 48): 51.95 (79) fold | Fold Amiloride* (Example 50): 51.55 (79) fold

CC(=O)OCC(COc1ccc(CCCCNC(=N)NC(=O)c2nc(Cl)c(N)nc2N)cc1)OC(C)=O (stereo not shown) [drawing 48: R=drawing 49, 4-[4-(2,3-Diacetoxypropyloxy)phenyl]butylamidino-3,5-diamino-6-chloropyrazinecarboxamide]
Fold Enhancement Over Amiloride (Example 29): 36 fold

COCCOc1ccc(CCCCNC(=N)NC(=O)c2nc(Cl)c(N)nc2N)cc1.Cl [drawing 50: n=1, 4-[4-(1,4-Dioxapent-1-yl)phenyl]butylamidino-3,5-diamino-6-chloropyrazinecarboxamide hydrochloride]
Fold Enhancement Over Amiloride (Example 30): 87 fold | Fold Amiloride* (Example 48): 51.5 ± 14.9 (2) fold

COCCOCCOc1ccc(CCCCNC(=N)NC(=O)c2nc(Cl)c(N)nc2N)cc1 [drawing 50: n=2, 4-[4-(1,4,7-Trioxaoct-1-yl)phenyl]-butyl amidino-3,5-diamino-6-chloropyrazinecarboxamide hydrochloride]
Fold Enhancement Over Amiloride (Example 30): 42 fold | Fold Amiloride* (Example 48): 76.1 (1) fold

COCCOCCOCCOCCOc1ccc(CCCCNC(=N)NC(=O)c2nc(Cl)c(N)nc2N)cc1.Cl [drawing 50: n=4, 4-[4-(1,4,7,10,13-pentoxatetradec-1-yl)phenyl]-butylamidino-3,5-diamino-6-chloropyrazinecarboxamide hydrochloride]
Fold Enhancement Over Amiloride (Example 30): 28.7 fold

COC(=O)C1OC(Oc2ccc(CCCCNC(N)=NC(=O)c3nc(Cl)c(N)nc3N)cc2)C(OC(C)=O)C(OC(C)=O)C1OC(C)=O (stereo not shown) [drawing 51: R^5=40, 4-[4-(Methyl-2,3,4-tri-O-acetyl-glucopyranonuronate-1-O-yl)phenyl]butylamidino-3,5-diamino-6-chloropyrazinecarboxamide]
Fold Enhancement Over Amiloride (Example 31): 65 fold

Cl.N=C(NCCCCc1ccc(CO)cc1)NC(=O)c1nc(Cl)c(N)nc1N [drawing 51: R^5=—CH2OH, 4-(4-Hydroxymethylphenyl)butylamidino-3,5-diamino-6-chloropyrazinecarboxamide hydrochloride]
Fold potency relative to amiloride: 50.9 ± 19.8 (3) | Fold Enhancement Over Amiloride (Example 31): 57 fold | Fold Amiloride* (Example 41): 50.9 ± 19.8 (3) fold | Fold Amiloride* (Example 44): 50.9 ± 19.8 (3) fold

COC(=O)c1ccc(CCCCNC(=N)NC(=O)c2nc(Cl)c(N)nc2N)cc1 [drawing 51: R^5=—CO2CH3, 4-(4-Carboxymethylphenyl)butylamidino-3,5-diamino-6-chloropyrazinecarboxamide hydrochloride]
Fold Enhancement Over Amiloride (Example 31): 26.5 fold

NC(=NC(=O)c1nc(Cl)c(N)nc1N)NCCCCc1ccc(OC2OC(C(=O)O)C(O)C(O)C2O)cc1 (stereo not shown) [drawing 51: R^5=—O-Glucuronide Na^+ Salt, 4-[4-(5-Carboxy-glucopyranonuronate-1-O-yl)-phenyl]butylamidino-3,5-diamino-6-chloropyrazinecarboxamide]
Fold Enhancement Over Amiloride (Example 31): 11.2 fold

NC(=NC(=O)c1nc(Cl)c(N)nc1N)NCCCCc1ccc(OS(=O)(=O)O)cc1 [drawing 51: R^5=—O—SO3H, 4-(4-Sulfatephenyl)butylamidino-3,5-diamino-6-chloropyrazinecarboxamide]
Fold Enhancement Over Amiloride (Example 31): 27.7 fold

N=C(NCCCCc1ccc(N)cc1)NC(=O)c1nc(Cl)c(N)nc1N [drawing 60: R=NH2, N=0, 4-[4-(4-Amino)phenyl)]butylamidino-3,5-diamino-6-chloropyrazinecarboxamide hydrochloride]
Fold potency relative to amiloride: 32.6 ± 2 | Fold Amiloride* (Example 41): 32.6 ± 2.0 (3) fold | Fold Amiloride* (Example 43): 32.6 ± 2 (3) fold | Fold Amiloride* (Example 48): 32.6 ± 2 (3) ^ fold

N=C(NCCCCc1ccc(CCO)cc1)NC(=O)c1nc(Cl)c(N)nc1N [drawing 60: R=OH, N=2, 4-(4-(2-Hydroxyethyl)phenyl)butylamidino-3,5-diamino-6-chloropyrazinecarboxamide hydrochloride]
Fold Amiloride* (Example 41): 79.2 ± 30.6 (4) fold | Fold Amiloride* (Example 47): 79.2 ± 30.6 (4) fold

N=C(NCCCCc1ccc(OCCN)cc1)NC(=O)c1nc(Cl)c(N)nc1N [drawing 61: R=NH2, n=2, 4-[4-(2-aminoethyloxy)phenyl)butylamidino-3,5-diamino-6-chloropyrazinecarboxamide hydrochloride]
Fold potency relative to amiloride: 56.5 ± 0 | Fold Amiloride* (Example 42, hydrochloride): 60.1 ± 1.3 (2) fold and 56.5 ± 0 (4) ^ fold | Fold Amiloride* (Example 45): 56.5 ± 24 (4) fold | Fold Amiloride* (Example 48): 84.9 ± 30.3 (6) fold

Cl.NC(=NCCCCc1ccc(OCCO)cc1)NC(=O)c1nc(Cl)c(N)nc1N [drawing 61: R=OH, n=2]
Fold potency relative to amiloride: 84.9 ± 30.3 | Fold Amiloride* (Example 42): 84.9 ± 30.3 (6) fold | Fold Amiloride* (Example 47): 84.9 ± 30.3 (6) fold | Fold Amiloride* (Example 50): 80.3 ± 25.5 (9) fold

N=C(NCCCCc1ccc(OCCCO)cc1)NC(=O)c1nc(Cl)c(N)nc1N [drawing 61: R=OH, n=3, 4-[4-(3-Hydroxypropyloxy)phenyl)]butylamidino-3,5-diamino-6-chloropyrazinecarboxamide hydrochloride]
Fold potency relative to amiloride: 105.2 ± 26.6 | Fold Amiloride* (Example 47): 105.2 ± 26.6 (7) fold

Cl.NC(=NCCCCc1ccc(OCCCO)cc1)NC(=O)c1nc(Cl)c(N)nc1N [drawing 61: R=OH, n=3]
Fold Amiloride* (Example 42): 105.2 ± 26.6 (7) fold

N=C(NCCCCc1ccc(C(=O)NCCO)cc1)NC(=O)c1nc(Cl)c(N)nc1N [drawing 62: X=C═O, Y=NH(CH2)2—OH, 4-{4-[N-(3,5-diamino-6-chloropyrazine-2-carbonyl)guanidino]butyl}-N-(2-hydroxyethyl)benzamide hydrochloride]
Fold Amiloride* (Example 43): 28.5 (1) fold

CC(C)(C)OC(=O)NCCOc1ccc(CCCCNC(N)=NC(=O)c2nc(Cl)c(N)nc2N)cc1 [drawing 64: X=NHCO2(CH3)3, [2-(4-{4-[N′-(3,5-Diamino-6-chloropyrazine-2-carbonyl)guanidino]butyl}phenoxy)ethyl]-carbamic acid tert-butyl ester]
Fold Amiloride* (Example 45): 51.7 ± 10.1 (2) fold | Fold Amiloride* (Example 49): 51.7 ± 10.1 (2) fold

N=C(NCCCCc1ccc(OCC(N)=O)cc1)NC(=O)c1nc(Cl)c(N)nc1N [drawing 65: R=—NH2, 2-{4-[N′-(3,5-diamino-6-chloropyrazine-2-carbonyl)guanidino]-4-butylphenoxy}acetamide hydrochloride]
Fold Amiloride* (Example 46): 48.2 ± 24.1 (7) fold

Cl.Cl.N=C(NCCCCc1ccc(OCCNC[C@H](O)[C@H](O)CO)cc1)NC(=O)c1nc(Cl)c(N)nc1N [drawing 67: O CH2 CH2 NH R^a, N-[4-(4-{2-[(2S,3R)-2,3,4-trihydroxybutylamino]ethoxy}phenyl)butyl]-N′-(3,5-diamino-6-chloropyrazine-2-carbonyl)guanidine dihydrochloride]
Fold Amiloride* (Example 48): 52.9 ± 14.3 (5) fold

Cl.Cl.N=C(NCCCCc1ccc(OCCN(C[C@H](O)[C@H](O)CO)C[C@H](O)[C@H](O)CO)cc1)NC(=O)c1nc(Cl)c(N)nc1N [drawing 67: O CH2 CH2 NR R^a,c (r13), N-[4-(4-{2-[bis-((2S,3R)-2,3,4-trihydroxybutyl)amino]ethoxy}phenyl)butyl]-N′-(3,5-diamino-6-chloropyrazine-2-carbonyl)guanidine dihydrochloride]
Fold Amiloride* (Example 48): 73.2 ± 49.3 (9) fold
